Data taken from ChEMBL document CHEMBL3425471, “Design, synthesis and biological evaluation of novel pyrazoline-containing derivatives as potential tubulin assembling inhibitors” (Eur J Med Chem, 2015).

Assays:
Tubulin = Tubulin (Bos taurus, UniProt Q6B856+Q862L2+Q862F3); assay: Inhibition of bovine brain tubulin polymerization after 20 mins by turbidimetric analysis
A549 = assay: cells; details: Homo sapiens, A549, 24 h
Description: Antiproliferative activity against human A549 cells assessed as reduction in cell viability after 24 hrs by MTT assay

MCF7 = assay: cells; details: Homo sapiens, MCF7, 24 h
Description: Antiproliferative activity against human MCF7 cells assessed as reduction in cell viability after 24 hrs by MTT assay

HepG2 = assay: cells; details: Homo sapiens, HepG2, 24 h
Description: Antiproliferative activity against human HepG2 cells assessed as reduction in cell viability after 24 hrs by MTT assay

| IC50 (Tubulin) [µM] | IC50 (A549) [µM] | IC50 (MCF7) [µM] | IC50 (HepG2) [µM] | Compound |
| --- | --- | --- | --- | --- |
| 21.73 | 4.26 | 4.77 | 2.14 | COc1cc(C2=NN(C(=O)c3ccc(Cl)cc3)C(c3ccc4c(c3)OCO4)C2)cc(OC)c1OC (stereo not drawn) |
| > 40 | 7.14 | 8.66 | 8.38 | COc1ccc(C2=NN(C(=O)c3ccc(Cl)cc3)C(c3ccc4c(c3)OCO4)C2)cc1 (stereo not drawn) |
| > 40 | > 10 | > 10 | > 10 | CCOc1ccc(C2=NN(C(=O)c3ccc(Br)cc3)C(c3ccc4c(c3)OCO4)C2)cc1 (stereo not drawn) |
| 25.06 | 4.16 | 5.26 | 6.22 | COc1cc(C2=NN(C(=O)c3ccc(Br)cc3)C(c3ccc4c(c3)OCO4)C2)cc(OC)c1OC (stereo not drawn) |
| 35.45 | 5.21 | 5.37 | 6.25 | COc1ccc(C2=NN(C(=O)c3ccccc3)C(c3ccc4c(c3)OCO4)C2)cc1 (stereo not drawn) |
| 7.08 | 5.08 | 7.34 | 5.17 | COc1cc(C(=O)N2N=C(c3cccc(C)c3)CC2c2ccc3c(c2)OCO3)cc(OC)c1OC (stereo not drawn) |
| 2.35 | 0.11 | 0.21 | 0.12 | COc1ccccc1C1=NN(C(=O)c2cc(OC)c(OC)c(OC)c2)C(c2ccc3c(c2)OCO3)C1 (stereo not drawn) |
| 18.02 | 3.08 | 4.26 | 3.16 | COc1cc(C(=O)N2N=C(c3ccc(Cl)cc3)CC2c2ccc3c(c2)OCO3)cc(OC)c1OC (stereo not drawn) |
| > 40 | > 10 | > 10 | > 10 | O=C(c1ccc(Br)cc1)N1N=C(c2ccc(Br)cc2)CC1c1ccc2c(c1)OCO2 (stereo not drawn) |
| 34.77 | 6.17 | 8.22 | 6.25 | COc1ccc(C2=NN(C(=O)c3cccc(OC)c3)C(c3ccc4c(c3)OCO4)C2)cc1 (stereo not drawn) |
| 15.63 | 2.19 | 3.38 | 2.24 | COc1cc(C(=O)N2N=C(c3ccccc3)CC2c2ccc3c(c2)OCO3)cc(OC)c1OC (stereo not drawn) |
| > 40 | > 10 | > 10 | > 10 | O=C(c1ccc(Br)cc1)N1N=C(c2ccccc2)CC1c1ccc2c(c1)OCO2 (stereo not drawn) |
| > 40 | > 10 | > 10 | > 10 | Cc1cccc(C2=NN(C(=O)c3ccc(Br)cc3)C(c3ccc4c(c3)OCO4)C2)c1 (stereo not drawn) |
| 22.06 | 3.19 | 4.46 | 6.26 | COc1ccc(C2=NN(C(=O)c3ccc(Br)cc3)C(c3ccc4c(c3)OCO4)C2)cc1OC (stereo not drawn) |
| 10.11 | 1.14 | 2.35 | 2.91 | COc1cc(C(=O)N2N=C(c3ccc(C)cc3)CC2c2ccc3c(c2)OCO3)cc(OC)c1OC (stereo not drawn) |
| 7.89 | 0.76 | 0.32 | 0.25 | COc1cc(C(=O)N2N=C(c3ccc(F)cc3)CC2c2ccc3c(c2)OCO3)cc(OC)c1OC (stereo not drawn) |
| 1.91 | 0.09 | 0.06 | 0.07 | COc1cccc(C2=NN(C(=O)c3cc(OC)c(OC)c(OC)c3)C(c3ccc4c(c3)OCO4)C2)c1 (stereo not drawn) |
